From patent US4004028A, “Phenoxypropanolamines” (SmithKline Corporation, priority 1975, dated 1977)
≈ marks a conversion by molar mass, not a printed value.

Assays:
[1] = tested on: guinea pig tracheal chain preparations; experiment: effect on spontaneous tone of guinea pig tracheal chain (ring) preparations, β-stimulant direct relaxant effect on airway smooth muscle; format: cell-based; conditions: for absolute separation ratio: atrial ED25 versus tracheal ED50, in vitro guinea pig preparations
Excerpt: (§1) Two in vitro test systems used for determining selective β-stimulant activity are: (1) effect on spontaneous tone of guinea pig tracheal chain preparations as a measure of β-stimulant (direct relaxant) effect on airway smooth muscle, and (2) effect on rate of spontaneously beating right atria of the guinea pig as a measure of β-stimulant effect on cardiac muscle.

[2] = tested on: guinea pig right atria; experiment: effect on rate of spontaneously beating right atria of the guinea pig, β-stimulant effect on cardiac muscle; format: cell-based; conditions: Cavia porcellus, in vitro, read-out: ED25, increasing the rate of contraction of guinea pig right atria
Excerpt: as §1

Row | EC50 ([1]; Cavia porcellus, in vitro, guinea pig tracheal ring preparation, read-out: ED50, relaxes the spontaneous tone of guinea pig tracheal ring preparation) [µg/mL] | SMILES | absolute separation ratio [1] | fold improvement of absolute separation ratio compared to d, l-isoproterenol ([1]; relative to d, l-isoproterenol (absolute separation ratio = 0.5)) [fold] | EC25 [2] [µg/mL]
1 | 0.00219 (≈ 0.00659 µM) | CC(C)(C)NCC(O)COc1ccc(O)c(NS(C)(=O)=O)c1 (centres unmarked) [3-(4-hydroxy-3-methanesulfonamidophenoxy)-1-(tert-butylamino)-2-propanol] | 186 | 372 | 0.409 (≈ 1.23 µM)
2 | – | CC(C)NCC(O)c1ccc(O)c(O)c1 (stereo not drawn) [d, l-isoproterenol, reference compound] | 0.5 | – | –
